The target of the assay is Histone deacetylase 3 (Homo sapiens, UniProt O15379). Nature of the assay: Inhibition of full length human recombinant HDAC3 expressed in Sf9 baculovirus system using FAM-labeled acetylated peptide as substrate by measuring fluorescence intensity by EMSA method.

Where only a bound is given, the exact number is not on record here.

Chain of Histone deacetylase 3 (O15379 whole entry): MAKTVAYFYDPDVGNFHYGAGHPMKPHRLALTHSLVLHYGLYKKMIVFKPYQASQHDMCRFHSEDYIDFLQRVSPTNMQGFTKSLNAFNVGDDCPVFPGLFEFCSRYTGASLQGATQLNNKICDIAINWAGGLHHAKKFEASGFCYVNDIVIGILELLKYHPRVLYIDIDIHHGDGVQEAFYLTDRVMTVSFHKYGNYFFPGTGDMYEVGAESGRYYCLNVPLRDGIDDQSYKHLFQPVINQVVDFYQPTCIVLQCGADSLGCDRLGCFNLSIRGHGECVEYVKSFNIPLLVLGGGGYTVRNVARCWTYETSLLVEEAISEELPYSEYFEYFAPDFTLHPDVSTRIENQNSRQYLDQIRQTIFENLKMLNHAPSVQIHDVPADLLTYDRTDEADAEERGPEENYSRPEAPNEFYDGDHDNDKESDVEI

Broadly, the IC50 is the concentration needed to halve the response being measured. With `O=C(NO)c1ccc(CN(C2CC2)S(=O)(=O)c2cc(F)c(F)c(F)c2F)cc1`, the IC50 is above 1000 nM.
